Source: US20220064146A1, “KINASE INHIBITOR COMPOUNDS AND COMPOSITIONS AND METHODS OF USE” (ICAHN SCHOOL OF MEDICINE AT MOUNT SINAI, priority 2018, published 2022)
Where “and” joins values, the source holds several entries; their conditions need not be identical. Equal values may be shown once.

What follows are compounds tested against DYRK1A (Homo sapiens, UniProt Q13627) (assay: DYRK1A binding assay (DiscoverX KINOMEscan)). Settings: eleven serial three fold dilutions, highest concentration 60 μM.
Procedure: Compounds were tested for DYRK1A binding activity at the commercial kinase profiling service DiscoverX. DiscoverX uses proprietary KINOMEscan® Assay (Fabian et al., “A Small Molecule-kinase Interaction Map for Clinical Kinase Inhibitors,” Nat. Biotechnol. 23(3):329-336 (2005), which is hereby incorporated by reference in its entirety). Compounds were screened for DYRK1A activity at a single concentration of 3 μM in duplicates. Similarly, the dissociation constant Kd of the hit compounds from the initial screening was determined at DiscoverX using their proprietary KINOMEscan® Assay. Kd values are determined using eleven serial three fold dilutions with the highest concentration of 60 μM.

SMILES | Kd
O=c1[nH]c2ccc(-c3ccc(NCc4ccc(F)cc4)nn3)cc2[nH]1 [Compound 16a, 5-(6-((4-Fluorobenzyl)amino)pyridazin-3-yl)-1H-benzo[d]imidazol-2 (3H)-one] | 7000 nM
O=c1[nH]c2ccc(-c3cnc(NCc4ccc(F)cc4)nc3)cc2[nH]1 [Compound 16b, 5-(2-((4-Fluorobenzyl)amino)pyrimidin-5-yl)-1H-benzo[d]imidazol-2(3H)-one] | 73 nM and 82 nM and 140 nM
O=c1[nH]c2ccc(-c3cnc(NCc4ccccc4)nc3)cc2[nH]1 [Compound 16c] | 50 nM and 95 nM and 80 nM and 60 nM
Cn1c(=O)[nH]c2ccc(-c3cnc(NCc4ccccc4)nc3)cc21 [Compound 17c, 6-(2-(Benzylamino)pyrimidin-5-yl)-1-methyl-1H-benzo[d]imidazol-2(3H)-one] | 59 nM
Cn1c(=O)[nH]c2ccc(-c3cnc(NCc4ccc(F)cc4)nc3)cc21 [Compound 17d, 6-(2-((4-Fluorobenzyl)amino)pyrimidin-5-yl)-1-methyl-1H-benzo[d]imidazol-2 (3H)-one] | 90 nM
c1ccc(CNc2ncc(-c3ccc4[nH]cnc4c3)cn2)cc1 [Compound 17i, 5-(1H-Benzo[d]imidazol-5-yl)-N-benzylpyrimidin-2-amine] | 2000 nM
Fc1ccc(CNc2ncc(-c3ccc4[nH]cnc4c3)cn2)cc1 [Compound 17j, 5-(1H-Benzo[d]imidazol-5-yl)-N-(4-fluorobenzyl)pyrimidin-2-amine] | 2300 nM
O=c1[nH]c2ccc(-c3cnc(NCc4ccccc4)cn3)cc2[nH]1 [Compound 18c, 5-(5-(Benzylamino)pyrazin-2-yl)-1H-benzo[d]imidazol-2(3H)-one] | 170 nM
O=c1[nH]c2ccc(-c3cnc(NCc4ccc(F)cc4)cn3)cc2[nH]1 [Compound 18d, 5-(5-((4-Fluorobenzyl)amino)pyrazin-2-yl)-1H-benzo[d]imidazol-2 (3H)-one] | 260 nM
O=c1[nH]c2ccc(-c3cnc(NCc4ccccc4F)nc3)cc2[nH]1 [Compound 29a, 5-(2-((2-Fluorobenzyl)amino)pyrimidin-5-yl)-1H-benzo[d]imidazol-2(3H)-one] | 69 nM
O=c1[nH]c2ccc(-c3cnc(NCc4cccc(F)c4)nc3)cc2[nH]1 [Compound 29b, 5-(2-((3-Fluorobenzyl)amino)pyrimidin-5-yl)-1H-benzo[d]imidazol-2(3H)-one] | 91 nM
O=c1[nH]c2ccc(-c3cnc(NCc4ccccc4Cl)nc3)cc2[nH]1 [Compound 29c, 5-(2-((2-Chlorobenzyl)amino)pyrimidin-5-yl)-1H-benzo[d]imidazol-2(3H)-one] | 250 nM
O=c1[nH]c2ccc(-c3cnc(NCc4cccc(Cl)c4)nc3)cc2[nH]1 [Compound 29d, 5-(2-((3-Chlorobenzyl)amino)pyrimidin-5-yl)-1H-benzo[d]imidazol-2(3H)-one] | 280 nM
O=c1[nH]c2ccc(-c3cnc(NCc4ccc(Cl)cc4)nc3)cc2[nH]1 [Compound 29e, 5-(2-((4-Chlorobenzyl)amino)pyrimidin-5-yl)-1H-benzo[d]imidazol-2(3H)-one] | 180 nM
N#Cc1cccc(CNc2ncc(-c3ccc4[nH]c(=O)[nH]c4c3)cn2)c1 [Compound 29f, 3-(((5-(2-Oxo-2,3-dihydro-1H-benzo[d]imidazol-5-yl)pyrimidin-2-yl)amino)methyl)benzonitrile] | 49 nM
N#Cc1ccc(CNc2ncc(-c3ccc4[nH]c(=O)[nH]c4c3)cn2)cc1 [Compound 29g, 4-(((5-(2-Oxo-2,3-dihydro-1H-benzo[d]imidazol-5-yl)pyrimidin-2-yl)amino)methyl)benzonnrile] | 120 nM
O=c1[nH]c2ccc(-c3cnc(NCc4ccc(-c5ccccc5)cc4)nc3)cc2[nH]1 [Compound 29h, 5-(2-(([1,1′-Biphenyl]-4-ylmethyl)amino)pyrimidin-5-yl)-1H-benzo[d]imidazol-2(3H)-one] | 1400 nM
CC(Nc1ncc(-c2ccc3[nH]c(=O)[nH]c3c2)cn1)c1ccccc1 (stereo not drawn) [Compound 29j, 5-(2-((1-Phenylethyl)amino)pyrimidin-5-yl)-1H-benzo[d]imidazol-2(3H)-one] | 360 nM
O=c1[nH]c2ccc(-c3cnc(NCCc4ccccc4)nc3)cc2[nH]1 [Compound 29k, 5-(2-(Phenethylamino)pyrimidin-5-yl)-1H-benzo[d]imidazol-2(3H)-one] | 200 nM

Continued, values first:

Kd | SMILES
190 nM | O=c1[nH]c2ccc(-c3cnc(NCc4cccnc4)nc3)cc2[nH]1 [Compound 30b, 5-(2-((Pyridin-3-ylmethyl)amino)pyrimidin-5-yl)-1H-benzo[d]imidazol-2(3H)-one]
130 nM | O=c1[nH]c2ccc(-c3cnc(NCc4ccncc4)nc3)cc2[nH]1 [Compound 30c, 5-(2-((Pyridin-4-ylmethyl)amino)pyrimidin-5-yl)-1H-benzo[d]imidazol-2 (3H)-one]
920 nM | O=c1[nH]c2ccc(-c3cnc(NCc4cccc5ccccc45)nc3)cc2[nH]1 [Compound 30d, 5-(2-((Naphthalen-1-ylmethyl)amino)pyrimidin-5-yl)-1H-benzo[d]imidazol-2 (3H)-one]
7100 nM | O=c1[nH]c2ccc(-c3cnc(NCc4ccc5ccccc5c4)nc3)cc2[nH]1 [Compound 30e, 5-(2-((Naphthalen-2-ylmethyl)amino)pyrimidin-5-yl)-1H-benzo[d]imidazol-2(3H)-one]
130 nM | NC(=O)c1cccc(CNc2ncc(-c3ccc4[nH]c(=O)[nH]c4c3)cn2)c1 [Compound 32a, 3-(((5-(2-Oxo-2,3-dihydro-1H-benzo[d]imidazol-5-yl)pyrimidin-2-yl)amino)methyl)benzamide]
46 nM | NC(=O)c1ccc(CNc2ncc(-c3ccc4[nH]c(=O)[nH]c4c3)cn2)cc1 [Compound 32b, 4-(((5-(2-Oxo-2,3-dihydro-1H-benzo[d]imidazo1-5-yl)pyrimidin-2-yl)amino)methyl)benzamide]

The compounds below were run against T1, DYRK1/DYRK1A (Homo sapiens, UniProt Q13627) (assay: DYRK1/DYRK1A IC50 assay (Reaction Biology Corp.)). Settings: DYRK1/DYRK1A assay from Reaction Biology Corp.; NI: No inhibition.
T1 construct: purchased Reaction Biology Corp. (assay service)
Type: biochemical

SMILES | IC50 [nM]
O=c1[nH]c2ccc(-c3cncc(NCc4ccccc4)n3)cc2[nH]1 [Compound 18m, 5-(6-(Benzylamino)pyrazin-2-yl)-1H-benzo[d]imidazol-2(3H)-one] | 1.13
O=c1[nH]c2ccc(-c3cnc(NCCCc4ccccc4)nc3)cc2[nH]1 [Compound 29l, 5-(2-((3-Phenylpropyl)amino)pyrimidin-5-yl)-1H-benzo[d]imidazol-2(3H)-one] | 34

Next, values leading:

IC50 [nM] | SMILES
78 | O=c1[nH]c2ccc(-c3cnc(Nc4ccccc4F)nc3)cc2[nH]1 [Compound 48a, 5-(2-((2-Fluorophenyl)amino)pyrimidin-5-yl)-1H-benzo[d]imidazol-2(3H)-one]
47.7 | O=c1[nH]c2ccc(-c3cnc(Nc4cccc(F)c4)nc3)cc2[nH]1 [Compound 48b, 5-(2-((3-Fluorophenyl)amino)pyrimidin-5-yl)-1H-benzo[d]imidazol-2(3H)-one]
58 | O=c1[nH]c2ccc(-c3cnc(Nc4ccc(F)cc4)nc3)cc2[nH]1 [Compound 48c, 5-(2-((4-Fluorophenyl)amino)pyrimidin-5-yl)-1H-benzo[d]imidazol-2(3H)-one]
59 | O=c1[nH]c2ccc(-c3cnc(Nc4ccccc4Cl)nc3)cc2[nH]1 [Compound 48d, 5-(2-((2-Chlorophenyl)amino)pyrimidin-5-yl)-1H-benzo[d]imidazol-2 (3H)-one]
54.9 | O=c1[nH]c2ccc(-c3cnc(Nc4cccc(Cl)c4)nc3)cc2[nH]1 [Compound 48e, 5-(2-((3-Chlorophenyl)amino)pyrimidin-5-yl)-1H-benzo[d]imidazol-2 (3H)-one]
90.6 | O=c1[nH]c2ccc(-c3cnc(Nc4ccc(Cl)cc4)nc3)cc2[nH]1 [Compound 48f, 5-(2-((4-Chlorophenyl)amino)pyrimidin-5yl)-1H-benzo[d]imidazol-2 (3H)-one]
497 | COc1ccccc1Nc1ncc(-c2ccc3[nH]c(=O)[nH]c3c2)cn1 [Compound 48g, 5-(2-((2-Methoxyphenyl)amino)pyrimidin-5-yl)-1H-benzo[d]imidazol-2(3H)-one]
23.5 | COc1cccc(Nc2ncc(-c3ccc4[nH]c(=O)[nH]c4c3)cn2)c1 [Compound 48h, 5-(2-((3-Methoxyphenyl)amino)pyrimidin-5-yl)-1H-benzo[d]imidazol-2(3H)-one]
30.1 | COc1ccc(Nc2ncc(-c3ccc4[nH]c(=O)[nH]c4c3)cn2)cc1 [Compound 48i, 5-(2-((4-Methoxyphenyl)amino)pyrimidin-5-yl)-1H-benzo[d]imidazol-2(3H)-one]
73.2 | O=c1[nH]c2ccc(-c3cnc(NCc4ccco4)nc3)cc2[nH]1 [Compound 51a, 5-(2-((Furan-2-ylmethyl)amino)pyrimidin-5-yl)-1H-benzo[d]imidazol-2(3H)-one]
32.7 | O=c1[nH]c2ccc(-c3cnc(NCc4cccs4)nc3)cc2[nH]1 [Compound 51b, 5-(2-((Thiophen-2-ylmethyl)amino)pyrimidin-5-yl)-1H-benzo[d]imidazol-2(3H)-one]
960 | O=c1[nH]c2ccc(-c3cnc(NCc4ncc[nH]4)nc3)cc2[nH]1 [Compound 51c, 5-(2-(((1H-Imidazol-2-yl)methyl)amino)pyrimidin-5-yl)-1H-benzo[d]imidazol-2(3H)-one]
326 | O=c1[nH]c2ccc(-c3cnc(NCc4c[nH]cn4)nc3)cc2[nH]1 [Compound 51d, 5-(2-(((1H-Imidazol-4-yl)methyl)amino)pyrimidin-5-yl)-1H-benzo[d]imidazol-2(3H)-one]
337 | O=c1[nH]c2ccc(-c3cnc(NCc4cc[nH]n4)nc3)cc2[nH]1 [Compound 51e, 5-(2-(((1H-Pyrazol-3-yl)methyl)amino)pyrimidin-5-yl)-1H-benzo[d]imidazol-2(3H)-one]
427 | O=c1[nH]c2ccc(-c3cnc(NCc4ncco4)nc3)cc2[nH]1 [Compound 51f, 5-(2-((Oxazol-2-ylmethyl)amino)pyrimidin-5-yl)-1H-benzo[d]imidazol-2(3H)-one]
